{"source": "patent EP3568126B1", "about": "“[…] COMPOSITION” (Torrent Pharmaceuticals Limited, priority 2017, dated 2018)", "origin": "cited, not measured here", "data": [{"substance": "3-[(1R,2R)-3-(dimethylamino)-1-ethyl-2-methylpropyl]phenol [tapentadol]", "values": [{"measurement": "time of maximum serum concentration", "setting": "after oral dosing", "value": "around 1.25 hours"}, {"measurement": "administered tapentadol metabolized (first-pass metabolism)", "setting": "oral administration", "value": "about 97%"}, {"measurement": "bioavailability", "setting": "oral administration", "value": 32, "unit": "%"}, {"measurement": "time after administration at which absorption occurs", "setting": "oral formulations", "value": "at least 45 minutes"}]}]}
